Converted amounts (≈) assume the structure as drawn. Residues, ends and D or L forms follow the SMILES beside them. *: point of attachment. X1 = CC1(C(=O)*)CCC2(C)CCC3(C)C(=CC(=O)C4C5(C)CCC(O)C(C)(C)C5CCC43C)C2C1
Legend:
[1] = test system: human colon HCT-116 cancer cell line; experiment: MTT cytotoxicity assay, colon HCT-116 cancer cell line; settings: for IC50: Homo sapiens, HCT-116, read-out: IC50 (µg/mL) ± SD HCT-116
Protocol: (§1) Accordingly, all the newly synthesized GA-based peptides except 1 and 6 were screened for their cytotoxicity against three different human cancer cell lines: MCF-7, HCT-116, and HepG-2 cell lines at different concentrations (10, 5, 2.5, 1.25, and 0.625 µg/mL).
(§2) Human breast MCF-7, colon HCT-116, and liver HepG-2 carcinoma cell line were taken from Vacsera (Giza, Egypt). The culture was retained in RPMI 1640 medium with 1% antibiotic–antimycotic mixture (25 μg/mL amphotericin B, 10,000 μg/mL streptomycin sulfate, and 10,000 U/mL potassium penicillin), 1% L-glutamine, and complemented by 10% heat inactivated fetal bovine serum. […] This experiment was carried out according to the reported MTT assay method, and the absorbance was measured at 595 nm.

caspase-7 = experiment: Human CASP-7 (caspase-7) estimation in MCF-7 cells (ELISA); assay type: cell-based; settings: for level of caspase-7: MCF-7 cells treated at IC50 for 24 h, untreated 0.3 ng/mL
Protocol: (§3) Caspases are a family of cysteine proteases that are responsible for launching the programmed cell death (apoptosis). […] Cell shrinkage, chromatin condensation, and DNA fragmentation are all apoptosis events, which need the involvement of caspase-7and caspase-3 [48, 54, 56].
The micro-ELISA plate provided in this kit pre-coated with CASP-7-specific antibody. A biotinylated CASP7 antibody and Avidin–horseradish p eroxidase (HRP) conjugate was added. Aspire the excess components. The substrate solution was added. Wells that contain CASP-7, biotinylated detection antibody, and Avidin-HRP conjugate will appear blue in color. The color turns yellow followed the addition of sulfuric acid solution. The optical density (OD) was measured at a wavelength of 450 nm ± 2 nm.

[2] = test system: human breast MCF-7 cancer cell line; experiment: MTT cytotoxicity assay, breast MCF-7 cancer cell line; assay type: cell-based; settings: Homo sapiens, MCF7; MTT, mean of three replicates; read-out: IC50 (µg/mL) ± SD MCF-7
Protocol: as §1, §2

[3] = test system: human liver cancer (HepG-2) cell line; experiment: MTT cytotoxicity assay, liver HepG-2 cancer cell line; assay type: cell-based; settings: Homo sapiens, HepG2; MTT, mean of three replicates; read-out: IC50 (µg/mL) ± SD HepG-2
Protocol: as §1, §2

Bax = experiment: Estimation of Bax level in MCF-7 cells; assay type: cell-based, human; settings: MCF-7 cells treated at IC50 for 24 h; untreated 65.50 Pg/mL
Text: (§4) The extrinsic pathway (death receptor) and the intrinsic pathway (mitochondrial route) are the main two routes that control a cell during apoptosis. The Bcl-2 protein introduces a central role in tumor growth or suppression the intrinsic apoptotic pathway. Conversely, the pro-apoptotic Bax acts essentially to enhance the process of cell apoptosis. Increasing the level of the anti-apoptotic Bcl-2 within the cancerous cell boosts the cell survival through inhibiting apoptosis. Accordingly, a balance situation between these two proteins determines the cell fate. Furthermore, p53 serves as a transcription factor acting as a tumor suppressor protein. This protein is expressed due to various cellular stresses such as DNA disruption. It is usually mutated in human cancers. The p53 pathway mediates either cell cycle arrest or apoptosis controlling the expression of Bcl-2 and Bax genes. Thus, since compound 5 produced the most promising cytotoxic activity against breast cancer cell lines with a safety profile against the normal cells, it was of interest to study its impact on the regulation of the oncogenic markers Bax, Bcl-2, and p53. […]
The levels of Bax protein were evaluated according to the reported method. […] Then, the reaction was terminated by adding acid, and optical density of the produced color was measured at 450 nm.

caspase-3 = experiment: Human CASP-3 (caspase-3) estimation in MCF-7 cells; assay type: cell-based; settings: MCF-7 cells treated at IC50 for 24 h; untreated 162 ng/mL
Micrococcus Luteus = experiment: Well diffusion assay, Micrococcus Luteus; assay type: cell-based
Protocol: (§5) The newly synthesized peptides 1–8 (compound 6 was not tested) was evaluated for their antimicrobial activity of against three pathogenic Gram-positive bacteria (Staphylococcus aureus ATCC25923, Streptococcus pneumoniaRCMB 010010, and Micrococcus Luteus), three pathogenic Gram-negative bacteria viz. Escherichia coli ATCC25922, Pseudomonas aeruginosa ATCC7853, and Proteus vulgaris RCMB 010085, and the yeast Candida albicans using the well diffusion method. […] The obtained data were documented for each derivative as the average diameter of the inhibition zones (IZ) in mm for the bacterial or the yeast growth around the discs (Table 2). […] Although Micrococcus Luteus bacteria is a normal commensal of human skin and the upper respiratory tract, it acts as an opportunistic pathogen and has been associated with various diseases including meningitis, septic arthritis, and endocarditis. […] Antimicrobial activity of the tested chemical peptides was determined by the well diffusion method for pathogenic bacteria having Gram-positive bacteria (Staphylococcus aureus ATCC25923, Streptococcus pneumonia, and Micrococcus luteus) and Gram-negative bacteria (Escherichia coli ATCC25922, Pseudomonas aeruginosa ATCC7853, and Proteus sp.) and Candida albicans as human pathogen yeast using the well diffusion method.

[4] = test system: Proteus vulgaris RCMB 010085; experiment: Well diffusion assay, Proteus vulgaris; assay type: cell-based; settings: Proteus vulgaris RCMB 010085, well diffusion
Protocol: as §5

Human p53 = experiment: Estimation of human p53 level in MCF-7 cells (ELISA); assay type: cell-based
Text: as §4, with “genes.” for “genes. Thus, since compound 5 produced the most promising cytotoxic activity against breast cancer cell lines with a safety profile against the normal cells, it was of interest to study its impact on the regulation of the oncogenic markers Bax, Bcl-2, and p53.”
Human p53 present in MCF-7 cells was determined; using Human p53 ELISA-Kit (CS0070 Sigma) read using spectrophotometer at 450 nm against untreated control cells (negative control) and doxorubicin (positive control) applying the standard protocols of the manufacturers. […] Then, the reaction was terminated by adding acid, and the absorbance was measured at 450 nm.

Tubulin Beta (TUBb) = molecular target: T1, Tubulin Beta (TUBb) (Homo sapiens, UniProt P07437); experiment: ELISA kit for Tubulin Beta (TUBb), tubulin polymerization in MCF-7 cells; assay type: cell-based; settings: read-out: inhibition of tubulin polymerization IC50 (tubulin B) (converted)
T1 construct: endogenous in cells; host or cells: MCF-7
T1 sequence (P07437 whole entry): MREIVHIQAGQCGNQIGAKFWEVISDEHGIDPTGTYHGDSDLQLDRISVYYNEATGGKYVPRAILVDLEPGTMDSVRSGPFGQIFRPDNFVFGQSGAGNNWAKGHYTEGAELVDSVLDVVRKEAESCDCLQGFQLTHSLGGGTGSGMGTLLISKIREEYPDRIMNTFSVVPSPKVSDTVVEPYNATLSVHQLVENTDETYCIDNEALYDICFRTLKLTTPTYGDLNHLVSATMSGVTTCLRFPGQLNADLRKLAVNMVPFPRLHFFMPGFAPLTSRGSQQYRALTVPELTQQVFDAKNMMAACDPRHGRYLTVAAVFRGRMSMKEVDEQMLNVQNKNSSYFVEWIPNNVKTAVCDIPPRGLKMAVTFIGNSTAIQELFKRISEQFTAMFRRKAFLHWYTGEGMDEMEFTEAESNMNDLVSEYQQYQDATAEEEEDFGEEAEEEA
T1 sequence (P68363 whole entry partner): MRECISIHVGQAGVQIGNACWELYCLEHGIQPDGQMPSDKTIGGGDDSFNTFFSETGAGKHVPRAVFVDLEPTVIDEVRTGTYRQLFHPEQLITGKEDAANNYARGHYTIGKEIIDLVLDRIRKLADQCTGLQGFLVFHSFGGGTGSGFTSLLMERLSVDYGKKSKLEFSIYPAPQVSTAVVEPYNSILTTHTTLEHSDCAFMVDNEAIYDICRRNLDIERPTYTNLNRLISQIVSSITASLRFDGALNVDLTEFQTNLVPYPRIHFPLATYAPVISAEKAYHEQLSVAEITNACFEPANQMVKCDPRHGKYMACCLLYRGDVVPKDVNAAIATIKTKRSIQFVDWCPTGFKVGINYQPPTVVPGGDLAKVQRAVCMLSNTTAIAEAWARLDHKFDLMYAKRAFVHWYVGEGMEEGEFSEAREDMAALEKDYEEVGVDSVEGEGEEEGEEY
Text: as §3

[5] = test system: human normal skin fibroblasts cell line BJ-1; experiment: Cytotoxicity against normal skin fibroblasts BJ-1; assay type: cell-based; settings: human, 10 µg/mL
Protocol: The frequency and severity of side effects to normal cells at therapeutic levels is one of the most critical factors that distinguish different anticancer drugs from each other. Accordingly, the GA peptides 1–8 were furthermore screened for their cytotoxicity at 10 µg/mL against the human normal skin fibroblasts cell line BJ-1 to determine their safety upon normal cells (Figure 4).

MCF-7 cells = experiment: DNA fragmentation through DPA assay in MCF-7 cells; assay type: cell-based, human; settings: treated MCF-7 cells
Protocol: as §3
Assessment of DNA fragmentation of the cells was done, as described by the reported method. Briefly, the cells were lysed for 15 min on ice with 0.5% (v/v) Triton X-100, 20 mM EDTA, and […] Tris (pH 8.0). Then, the cells were centrifuged to separate intact chromatin from DNA fragments for 20 min, at 27,000 Xg. Measurement of the amount of DNA was done using a diphenylamine reagent, and the optical density was measured at 600 nm.

Bcl-2 = experiment: Estimation of Bcl-2 level in MCF-7 cells; assay type: cell-based, human; settings: MCF-7 cells treated at IC50 5 μg/mL for 24 h; untreated 7.20 ng/mL
Text: as §4
The samples and standards having Bcl-2 were estimated as previously mentioned. […] Then, the reaction was terminated by adding acid, and the absorbance was measured at 450 nm.

Candida albicans = experiment: Well diffusion assay, Candida albicans; assay type: cell-based
Protocol: as §5

[6] = test system: Escherichia coli ATCC25922; experiment: Well diffusion assay, Escherichia coli; assay type: cell-based
Protocol: as §5

[7] = test system: Streptococcus pneumonia RCMB 010010; experiment: Well diffusion assay, Streptococcus pneumonia; assay type: cell-based; settings: Streptococcus pneumonia RCMB 010010, well diffusion
Protocol: as §5

[8] = test system: Staphylococcus aureus ATCC25923; experiment: Well diffusion assay, Staphylococcus aureus; assay type: cell-based
Protocol: as §5

[9] = test system: Pseudomonas aeruginosa ATCC7853; experiment: Well diffusion assay, Pseudomonas aeruginosa; assay type: cell-based
Protocol: as §5

COc1cccc2c1C(=O)c1c(O)c3c(c(O)c1C2=O)C[C@@](O)(C(=O)CO)C[C@@H]3O[C@H]1C[C@H](N)[C@H](O)[C@H](C)O1 [DOX, doxorubicin, reference compound]
IC50 [1]: 1.09 ± 3 µg/mL (≈ 2.01 µM)
level of caspase-7 (caspase-7): 1.9 ng/mL
IC50 [2]: 7.07 ± 1 µg/mL (≈ 13 µM)
IC50 [3]: 0.54 ± 1 µg/mL (≈ 0.994 µM)
level of Bax protein (Bax): 259.2 pg/mL
level of caspase-3 (caspase-3): 650 ng/mL

CC1(C(=O)NCC(=O)NCC(=O)NCC(=O)NCC(=O)O)CCC2(C)CCC3(C)C(=CC(=O)C4C5(C)CCC(O)C(C)(C)C5CCC43C)C2C1 (stereo not drawn) [Compound 5, 1-(10-Hydroxy-2,4a,6a,6b,9,9,12a-heptamethyl-13-oxo-1,2,3,4,4a,5,6,6a,6b,7,8,8a,9,10,11,12,12a,12b,13,14b-icosahydropicen-2-yl)-1,4,7,10-tetraoxo-2,5,8,11-tetraazatridecan-13-oic Acid] (X1-GGGG-OH)
Diameter of Inhibition Zone (mm) (Micrococcus Luteus): 30 ± 0.15 mm
IC50 [1]: 5.2 ± 0.8 µg/mL (≈ 7.44 µM)
cytotoxicity percentage ([1]; human, 10 µg/mL): 96.16%
caspase-7 level elevation versus untreated cells (caspase-7; MCF-7, 5 μg/mL, 24 h): about a three-fold
level of caspase-7 (caspase-7): 0.9 ng/mL
Diameter of Inhibition Zone (mm) [4]: 10 ± 0.17 mm
rise of p53 level versus untreated MCF-7 (Human p53; MCF-7, 5 μg/mL, 24 h): approximately six-fold
level of p53 (Human p53; MCF-7 cells treated at IC50 5 μg/mL for 24 h, untreated 111.07 Pg/mL): 679.8 pg/mL
IC50 [2]: 5 ± 0.3 µg/mL (≈ 7.15 µM)
IC50 (Tubulin Beta (TUBb)): 0.848 µM
cytotoxic effect on normal cells BJ-1 [5]: 20%
DNA fragmentation, times the percent in untreated cells (MCF-7 cells): about 4.5 fold
percentage of DNA fragmentation (MCF-7 cells; untreated 7.8%): 35%
level of Bcl-2 (Bcl-2): 3.40 ng/mL
level of Bax protein (Bax): 249.9 pg/mL
Diameter of Inhibition Zone (mm) (Candida albicans): 13 ± 0.17 mm
level of caspase-3 (caspase-3): 477 ng/mL
Diameter of Inhibition Zone (mm) [6]: 18 ± 0.23 mm
Diameter of Inhibition Zone (mm) [7]: 16 ± 0.12 mm
Diameter of Inhibition Zone (mm) [8]: 15 ± 0.15 mm
Diameter of Inhibition Zone (mm) [9]: 17 ± 0.16 mm
